Results taken from patent US10947196B2, “Beta adrenergic agonist and methods of using the same” (CURASEN THERAPEUTICS, INC., priority 2019, dated 2021).
Read-outs that look alike come from different tables or passages of the source.

What was measured:
β1-adrenergic receptor = β1-adrenergic receptor (Homo sapiens (Human), UniProt P08588); experiment: cAMP Gs dynamic HTRF assay, β1 expressing CHO cells; format: cell-based
Procedure: (§1) cAMP homogeneous time-resolved fluorescence (HTRF). Compound efficacy was determined using the cAMP Gs dynamic HTRF assay (Cisbio, catalog #62AM4PEC) largely following the manufacturer's instructions, also detailed below.
(§2) Compound preparation. […] Standard serial dilution curves were 10-point, 5-fold dilutions starting from a highest concentration of 10 μM. […] Assay plates were centrifuged at 500×g for 10 seconds. Compounds and IBMX were prepared at 2× final dose to compensate for addition of cells.
(§3) Cell preparation. 1× stimulation buffer, washing PBS (Dulbecco's phosphate-buffered saline, −Mg −Ca; Caisson Labs, catalog #PBL01), assay PBS (Dulbecco's phosphate-buffered saline, +Mg, +Ca; Caisson Labs, catalog #PBL02) and Versene (0.02% EDTA disodium salt solution in PBS without calcium or magnesium; Caisson Labs, catalog #EDL01) were pre-warmed to 37° C. Cells expressing beta-adrenergic receptor were washed in washing PBS to remove growth medium and then released from the surface by incubating with Versene for 5-10 minutes at 37° C. Cells were harvested using assay PBS, counted manually by hemocytometer or by an automated cell counter, pelleted by centrifugation (200×g, 5 minutes) and resuspended in 37° C. 1× stimulation buffer to a final density of 1.5×10^6 cells/mL. 5 μL of the suspended cell solution (7500 cell total) were added to all wells of the 384 well assay plate, the assay plate was covered with an Axygen® plate seal (Corning PCR-SP) and incubated in a humidified 37° C. environment supplemented with 5% CO2 for 30 minutes.
(§4) HTRF reagent addition, reading and data analysis. After 30 minutes of cell stimulation with test compound, the assay plates were centrifuged at 500×g for 10 seconds, and incubation was stopped with the addition of 5 μL cAMP-D2 acceptor, diluted 1:21 in detection and lysis buffer 2 (Cisbio 62CL2FDF) was added to all cells. Subsequently, 5 μL Anti-cAMP-Eu Donor, diluted 1:21 in detection and lysis buffer 2, was added to cells. Plates were sealed and reactions gently ‘vortexed’ at 900 rpm on a Heidolph Titramax 1000 for at least 30 minutes at room temperature. Plates were centrifuged again at 500×g for 10 seconds, and HTRF was measured using a Tecan Spark plate reader at 50 flashes per well. […] Potency estimates (EC50) were derived from the four-parameter nonlinear regression of the concentration-effect curve and an estimate of relative efficacy was determined by comparing the magnitude of the test compound HTRF signal window (min−max dose) with the signal window of the full agonist control, isoproterenol.

β2 adrenergic receptor = β2 adrenergic receptor (Homo sapiens (Human), UniProt P07550); experiment: cAMP Gs dynamic HTRF assay, β2 expressing CHO cells; format: cell-based
Procedure: as §1, §2, §3, §4

[1] = B1-AR, CHO-K cells, read-out: Average EC50 [Receptor subtype: B1-AR, Cell type: CHO-K]
[2] = B2-AR, CHO-K1 (HitHunter), read-out: Average pEC50 [Receptor subtype: B2-AR, Cell type: CHO-K1 (HitHunter)] (converted)
[3] = B2-AR, CHO-K cells, read-out: Average EC50 [Receptor subtype: B2-AR, Cell type: CHO-K]
[4] = B1-AR, CHO-K1 (HitHunter), read-out: Average pEC50 [Receptor subtype: B1-AR, Cell type: CHO-K1 (HitHunter)] (converted)

β1-adrenergic receptor, sequence (P08588 whole entry, species assumed): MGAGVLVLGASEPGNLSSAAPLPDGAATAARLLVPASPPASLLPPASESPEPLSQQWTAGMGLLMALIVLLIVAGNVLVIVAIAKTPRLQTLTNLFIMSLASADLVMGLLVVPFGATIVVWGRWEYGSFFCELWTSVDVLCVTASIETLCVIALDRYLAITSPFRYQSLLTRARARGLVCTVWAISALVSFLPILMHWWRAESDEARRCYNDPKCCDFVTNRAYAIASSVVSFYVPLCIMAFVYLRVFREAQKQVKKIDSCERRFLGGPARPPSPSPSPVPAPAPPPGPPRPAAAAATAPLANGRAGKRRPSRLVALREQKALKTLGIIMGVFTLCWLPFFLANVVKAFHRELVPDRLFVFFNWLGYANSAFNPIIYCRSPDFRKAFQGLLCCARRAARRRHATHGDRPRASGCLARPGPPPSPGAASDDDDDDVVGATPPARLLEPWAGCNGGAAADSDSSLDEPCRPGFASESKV
β2 adrenergic receptor, sequence (P07550 whole entry, species assumed): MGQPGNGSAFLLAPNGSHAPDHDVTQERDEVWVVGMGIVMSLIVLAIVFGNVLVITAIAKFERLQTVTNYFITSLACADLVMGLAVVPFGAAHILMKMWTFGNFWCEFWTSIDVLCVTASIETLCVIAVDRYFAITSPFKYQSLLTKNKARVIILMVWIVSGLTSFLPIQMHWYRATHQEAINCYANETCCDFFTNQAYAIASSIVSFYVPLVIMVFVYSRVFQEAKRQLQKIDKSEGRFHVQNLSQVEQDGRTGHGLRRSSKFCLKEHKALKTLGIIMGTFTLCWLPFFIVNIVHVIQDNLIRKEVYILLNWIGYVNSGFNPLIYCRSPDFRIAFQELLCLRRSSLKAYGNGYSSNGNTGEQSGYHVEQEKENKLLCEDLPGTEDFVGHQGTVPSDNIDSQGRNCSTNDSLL

SMILES | Average pEC50 [Receptor subtype: B1-AR; Cell type: CHO-K1 (HitHunter)] (β1-adrenergic receptor; B1-AR, CHO-K1 (HitHunter)) | EC50 (β1-adrenergic receptor; [1]) [nM] | EC50 (β2 adrenergic receptor; [2]) [nM] | EC50 (β2 adrenergic receptor; [3]) [nM] | EC50 (β1-adrenergic receptor; [4]) [nM] | also measured
CC(C)(C)NC[C@H](O)c1cccc(-c2cccc(Cl)c2)n1 [Compound 03-129] | B (B = 8-7) | 10 to 100 | < 10 | < 10 |  | 
CC(C)(C)NC[C@@H](O)c1cccc(-c2ccncc2)n1 [Compound 03-220] |  |  | 10 to 100 |  | > 1000 | 
CC(C)(C)NC[C@H](O)c1cc(C(F)(F)F)ccn1 [Compound 03-2] |  |  |  |  |  | EC50 (β1-adrenergic receptor; cAMP HTRF, read-out: β1 EC50): > 1000 nM; EC50 (β2 adrenergic receptor; cAMP HTRF, read-out: β2 EC50): 100 to 1000 nM
CC(C)(C)NC[C@@H](O)c1cccc(NC2CCC2)n1 [Compound 03-229] |  |  | > 1000 |  | > 1000 | 
CC(C)(C)NC[C@H](O)c1cccc(C(C)(C)CN)n1 [Compound 03-280] |  |  | > 1000 |  | > 1000 | 
CCNc1cccc([C@@H](O)CNC(C)(C)C)n1 [Compound 03-262] |  |  | < 10 |  | 10 to 100 | 
CC(C)(C)NC[C@H](O)c1cccc(N2CC3CCCC3C2)n1 (stereo partly shown) [Compound 03-135] | C (C = <7-6) | 100 to 1000 | < 10 | < 10 |  | 
CC(C)(C)NC[C@H](O)c1ncccc1C(F)(F)F [Compound 03-1, (S)-2-(tert-butylamino)-1-(3-(trifluoromethyl)pyridin-2-yl)ethan-1-ol] |  |  |  |  |  | EC50 (β1-adrenergic receptor; cAMP HTRF, read-out: β1 EC50): > 1000 nM; EC50 (β2 adrenergic receptor; cAMP HTRF, read-out: β2 EC50): > 1000 nM
CC(C)(C)NC[C@H](O)c1cccc(NC2(C)CC2)n1 [Compound 03-264] |  |  | < 10 |  | 10 to 100 | 
CC(C)(C)NC[C@H](O)c1cccnc1C(C)(F)F [Compound 03-83] |  |  | 100 to 1000 |  | > 1000 | 
COc1ccc(C[C@@H](C)NC[C@H](O)c2ccc(C3CC3)nc2C)cc1 [Compound 03-269] | B (B = 8-7) |  |  |  |  | Average pEC50 [Receptor subtype: B2-AR; Cell type: CHO-K1 (HitHunter)] (β2 adrenergic receptor; B2-AR, CHO-K1 (HitHunter)): A (A > 8)
CC(C)(C)NC[C@H](O)c1cccnc1N1CCCC1 [Compound 03-60] | D (D < 6) | > 1000 | > 1000 | > 1000 |  | 
CNc1ccc([C@@H](O)CN[C@H](C)Cc2ccc(OC)cc2)c(C)n1 [Compound 03-277] |  |  |  |  |  | EC50 (β1-adrenergic receptor; Average pEC50 [Receptor subtype: B1-AR, Cell type: CHO-K1 (HitHunter)], B1-AR, CHO-K1 (HitHunter)): > 1000 nM; EC50 (β2 adrenergic receptor; Average pEC50 [Receptor subtype: B2-AR, Cell type: CHO-K1 (HitHunter)], B2-AR, CHO-K1 (HitHunter)): < 10 nM
CC(C)(C)NC[C@@H](O)c1cccc(C#N)n1 [Compound 03-48, (R)-6-(2-(tert-butylamino)-1-hydroxyethyl)picolinonitrile] | D (D < 6) | > 1000 |  | > 1000 |  | Average pEC50 [Receptor subtype: B2-AR; Cell type: CHO-K1 (HitHunter)] (β2 adrenergic receptor; B2-AR, CHO-K1 (HitHunter)): C-D
CC(C)(C)NC[C@H](O)c1ccc(C#N)c(C(F)(F)F)n1 [Compound 03-30] |  | 100 to 1000 | 10 to 100 | 10 to 100 | 100 to 1000 | 
CC(C)(C)NC[C@@H](O)c1cccc(-n2cccn2)n1 [Compound 03-225] |  |  | 100 to 1000 |  | 100 to 1000 | 
CC(C)(C)NC[C@@H](O)c1cccc(-c2cccnc2)n1 [Compound 03-152] | D (D < 6) | > 1000 | 10 to 100 | 100 to 1000 |  | 
CC(C)(C)NC[C@@H](O)c1cccc(N2CCOCC2)n1 [Compound 03-158] | D (D < 6) | > 1000 | 10 to 100 | 10 to 100 |  | 
CN(C)c1cccc([C@H](O)CNC(C)(C)C)n1 [Compound 03-154] |  | > 1000 | > 1000 | > 1000 | > 1000 | 
O[C@H](CNC1(C(F)(F)F)CC1)c1cccc(C(F)(F)F)n1 [Compound 03-235] |  |  | > 1000 |  | > 1000 | 
Cc1ncc(F)cc1[C@@H](O)CNC(C)(C)C [Compound 03-258] |  |  | 10 to 100 |  | 100 to 1000 | 
Cc1nc(C2CC2)ccc1[C@@H](O)CNC(C)(C)C [Compound 03-268] |  |  | < 10 |  | 10 to 100 | 
CC(C)(C)NC[C@H](O)c1cccc(-c2ccccc2F)n1 [Compound 03-155] |  | 10 to 100 | < 10 | < 10 | 10 to 100 | 
